Measurements published in ChEMBL document CHEMBL1201862, “PubChem BioAssay data set” (2004).
Active and inactive are the calls of the source.

What was measured:
Mucolipin-3 = target: T1, Mucolipin-3 (Homo sapiens, UniProt Q8TDD5); experiment: Dose response cell-based high-throughput screening assay for agonists of the transient receptor potential channel ML3 (TRPML3). [Related pubchem assays: 1526, 1424, 1448 ]; format: functional
T1 sequence (Q8TDD5 whole entry): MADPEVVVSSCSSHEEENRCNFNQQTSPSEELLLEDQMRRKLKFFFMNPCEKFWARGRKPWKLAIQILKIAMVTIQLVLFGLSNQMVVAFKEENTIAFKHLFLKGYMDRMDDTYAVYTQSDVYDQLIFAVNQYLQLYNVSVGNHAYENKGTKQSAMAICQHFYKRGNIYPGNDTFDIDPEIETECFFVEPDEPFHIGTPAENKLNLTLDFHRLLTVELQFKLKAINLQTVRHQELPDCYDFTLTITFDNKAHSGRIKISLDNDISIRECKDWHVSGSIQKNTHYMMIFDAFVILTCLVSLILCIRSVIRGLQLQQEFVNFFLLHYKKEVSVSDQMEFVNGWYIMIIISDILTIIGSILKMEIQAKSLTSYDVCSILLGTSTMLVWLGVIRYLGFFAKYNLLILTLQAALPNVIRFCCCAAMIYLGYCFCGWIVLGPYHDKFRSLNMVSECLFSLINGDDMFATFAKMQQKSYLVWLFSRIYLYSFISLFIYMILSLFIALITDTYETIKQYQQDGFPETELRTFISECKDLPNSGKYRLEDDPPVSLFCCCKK

Ion channel NompC = Ion channel NompC (Danio rerio, UniProt Q7T1G6); experiment: Fluorescence counterscreen assay for TRPML3 agonists: dose response cell-based high-throughput screening assay to identify agonists of the transient receptor potential channel N1 (TRPN1). [Related pubchem assays: 1526, 1424, 1448 ]; format: functional
Sequence of Ion channel NompC (Q7T1G6 whole entry): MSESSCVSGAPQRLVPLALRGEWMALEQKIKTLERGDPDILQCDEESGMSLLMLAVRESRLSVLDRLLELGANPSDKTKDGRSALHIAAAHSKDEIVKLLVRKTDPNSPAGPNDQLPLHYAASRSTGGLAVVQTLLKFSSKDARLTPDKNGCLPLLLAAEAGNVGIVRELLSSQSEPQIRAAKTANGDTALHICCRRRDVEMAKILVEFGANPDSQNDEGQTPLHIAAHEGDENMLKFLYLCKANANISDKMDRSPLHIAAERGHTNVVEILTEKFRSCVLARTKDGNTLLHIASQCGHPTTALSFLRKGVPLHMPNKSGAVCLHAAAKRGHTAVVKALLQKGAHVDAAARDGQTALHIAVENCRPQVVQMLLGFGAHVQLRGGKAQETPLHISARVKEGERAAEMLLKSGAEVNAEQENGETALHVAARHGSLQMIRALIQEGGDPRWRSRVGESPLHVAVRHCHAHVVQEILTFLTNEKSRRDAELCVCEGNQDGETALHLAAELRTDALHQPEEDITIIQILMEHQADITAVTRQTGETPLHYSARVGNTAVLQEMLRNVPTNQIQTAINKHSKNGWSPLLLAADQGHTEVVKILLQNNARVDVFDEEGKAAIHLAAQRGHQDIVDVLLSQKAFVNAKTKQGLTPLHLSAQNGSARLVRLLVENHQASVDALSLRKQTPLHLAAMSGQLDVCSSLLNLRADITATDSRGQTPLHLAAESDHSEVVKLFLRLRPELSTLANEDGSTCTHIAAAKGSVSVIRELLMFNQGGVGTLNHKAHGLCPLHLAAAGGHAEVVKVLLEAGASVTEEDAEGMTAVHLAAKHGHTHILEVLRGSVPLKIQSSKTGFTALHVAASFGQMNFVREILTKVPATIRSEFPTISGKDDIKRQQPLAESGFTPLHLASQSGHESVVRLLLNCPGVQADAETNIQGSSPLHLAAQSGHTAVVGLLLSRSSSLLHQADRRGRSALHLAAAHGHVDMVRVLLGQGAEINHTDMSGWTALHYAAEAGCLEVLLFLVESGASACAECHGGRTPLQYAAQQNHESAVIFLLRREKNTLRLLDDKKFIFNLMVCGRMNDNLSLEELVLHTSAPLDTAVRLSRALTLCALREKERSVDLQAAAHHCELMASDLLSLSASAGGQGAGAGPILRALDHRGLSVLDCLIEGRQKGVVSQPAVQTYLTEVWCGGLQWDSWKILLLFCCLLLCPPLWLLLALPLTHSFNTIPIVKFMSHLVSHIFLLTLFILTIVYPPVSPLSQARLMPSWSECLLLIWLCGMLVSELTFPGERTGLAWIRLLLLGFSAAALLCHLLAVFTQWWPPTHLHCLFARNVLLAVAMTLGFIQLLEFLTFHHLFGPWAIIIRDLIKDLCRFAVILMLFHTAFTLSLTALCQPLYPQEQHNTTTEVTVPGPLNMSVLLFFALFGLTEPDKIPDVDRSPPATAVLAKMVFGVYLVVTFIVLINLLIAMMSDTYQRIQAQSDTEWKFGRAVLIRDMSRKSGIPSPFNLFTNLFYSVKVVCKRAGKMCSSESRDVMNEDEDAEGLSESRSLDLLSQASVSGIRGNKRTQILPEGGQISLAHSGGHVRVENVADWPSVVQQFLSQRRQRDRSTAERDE

[1] = target: Glyceraldehyde-3-phosphate dehydrogenase (Homo sapiens, UniProt P04406)
Sequence of Glyceraldehyde-3-phosphate dehydrogenase (P04406 whole entry): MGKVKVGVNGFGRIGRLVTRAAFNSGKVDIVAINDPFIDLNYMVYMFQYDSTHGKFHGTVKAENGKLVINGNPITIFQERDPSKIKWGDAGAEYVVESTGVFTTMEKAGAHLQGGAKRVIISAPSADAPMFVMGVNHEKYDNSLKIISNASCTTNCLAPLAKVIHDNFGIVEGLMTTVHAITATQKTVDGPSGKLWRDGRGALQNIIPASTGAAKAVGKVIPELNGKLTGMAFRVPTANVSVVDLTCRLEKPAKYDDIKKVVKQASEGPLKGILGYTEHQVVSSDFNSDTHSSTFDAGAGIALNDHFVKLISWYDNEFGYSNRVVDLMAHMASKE

Bcl-2-related protein A1 [2] = target: T2, Bcl-2-related protein A1 (Mus musculus, UniProt Q07440); experiment: Bfl-1 inhibitors blocking BH3 peptide binding, confirmation, biochemical, TR-FRET, mouse Bfl-1 (AID 621);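 note: TR-FRET binding of GST-Bfl-1 to FITC-labelled Bid peptide via terbium antibody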
T2 sequence (Q07440 whole entry): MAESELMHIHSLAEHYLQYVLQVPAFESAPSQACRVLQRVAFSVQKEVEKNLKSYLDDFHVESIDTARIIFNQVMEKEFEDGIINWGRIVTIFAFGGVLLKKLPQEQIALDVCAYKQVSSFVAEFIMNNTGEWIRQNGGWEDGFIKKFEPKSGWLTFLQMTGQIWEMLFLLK

Bcl-2-related protein A1 [3] = target: T2, Bcl-2-related protein A1; experiment: Bfl-1 binding inhibitors, SAR follow-up, biochemical, fluorescence polarization (AID 1070)
[4] = target: G-protein coupled receptor 55 (Homo sapiens, UniProt Q9Y2T6); experiment: GPR55 antagonists blocking LPI-driven arrestin recruitment, primary screen, imaging, U2OS, beta-arrestin-GFP, LPI agonist (AID 2013); format: functional;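 note: antagonist potency measured as reduced agonist-driven arrestin aggregation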
Sequence of G-protein coupled receptor 55 (Q9Y2T6 whole entry): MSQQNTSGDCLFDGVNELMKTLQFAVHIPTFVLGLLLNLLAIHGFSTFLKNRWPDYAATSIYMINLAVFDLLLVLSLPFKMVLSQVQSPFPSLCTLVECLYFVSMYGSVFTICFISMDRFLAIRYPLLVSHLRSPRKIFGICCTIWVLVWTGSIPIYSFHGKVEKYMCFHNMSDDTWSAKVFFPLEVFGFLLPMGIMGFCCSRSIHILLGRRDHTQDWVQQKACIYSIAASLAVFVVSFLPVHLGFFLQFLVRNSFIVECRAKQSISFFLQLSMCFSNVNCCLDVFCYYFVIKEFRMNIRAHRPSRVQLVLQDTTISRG

[5] = M. tuberculosis H37Rv growth inhibitors, H37Rv strain (AID 1626); format: functional
[6] = Luminescence Cell-Based Dose Response to Identify Activators of 5'UTR Stem-Loop Driven Prion Protein mRNA Translation in H4-C Neuroglioblastoma Cells. [Related pubchem assays: 1829 (Project Summary), 1814 (Primary HTS)]; format: functional
[7] = Luminescence Cell-Based Dose Response HTS to Identify Activators of Luciferase Translation or Activity in H4 […] Cells. [Related pubchem assays: 1829 (Project Summary), 1814 (Primary HTS)]; format: functional
[8] = Luminescence Cell-Based Dose Response to Identify Activators of Luciferase Translation or Activity in H4-C Neuroglioblastoma Cells. [Related pubchem assays: 1829 (Project Summary), 1814 (Primary HTS)]; format: functional
[9] = Luminescence Cell-Based Dose Confirmation to Identify Activators of 5'UTR Stem-Loop Driven Alpha-Synuclein mRNA Translation in H4 Neuroglioblastoma Cells. [Related pubchem assays: 1829 (Project Summary), 1814 (Primary HTS)]; format: functional
Cytochrome P450 2C9 = Cytochrome P450 2C9 (Homo sapiens, UniProt P11712)
Sequence of Cytochrome P450 2C9 (P11712 whole entry): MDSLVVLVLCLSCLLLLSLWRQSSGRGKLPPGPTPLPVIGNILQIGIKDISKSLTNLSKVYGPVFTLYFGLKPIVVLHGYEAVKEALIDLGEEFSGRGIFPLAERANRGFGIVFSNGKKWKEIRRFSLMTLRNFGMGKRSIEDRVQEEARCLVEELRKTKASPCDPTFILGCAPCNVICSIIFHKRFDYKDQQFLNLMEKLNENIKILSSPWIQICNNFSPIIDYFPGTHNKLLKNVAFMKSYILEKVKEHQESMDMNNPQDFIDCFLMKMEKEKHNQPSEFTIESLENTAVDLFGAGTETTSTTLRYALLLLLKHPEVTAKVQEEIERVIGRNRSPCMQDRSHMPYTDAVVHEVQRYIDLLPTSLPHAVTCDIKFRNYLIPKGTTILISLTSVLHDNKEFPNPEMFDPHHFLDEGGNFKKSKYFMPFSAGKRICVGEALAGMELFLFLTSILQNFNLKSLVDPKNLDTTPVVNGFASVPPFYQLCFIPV

[10] = target: T3, Neuropeptide Y receptor type 1 (Homo sapiens, UniProt P25929); format: functional;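 note: HEK293 cells with a CNG channel challenged with NPY then isoproterenol; potency as antagonist that reverses NPY suppression of cAMP signal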
T3 sequence (P25929 whole entry): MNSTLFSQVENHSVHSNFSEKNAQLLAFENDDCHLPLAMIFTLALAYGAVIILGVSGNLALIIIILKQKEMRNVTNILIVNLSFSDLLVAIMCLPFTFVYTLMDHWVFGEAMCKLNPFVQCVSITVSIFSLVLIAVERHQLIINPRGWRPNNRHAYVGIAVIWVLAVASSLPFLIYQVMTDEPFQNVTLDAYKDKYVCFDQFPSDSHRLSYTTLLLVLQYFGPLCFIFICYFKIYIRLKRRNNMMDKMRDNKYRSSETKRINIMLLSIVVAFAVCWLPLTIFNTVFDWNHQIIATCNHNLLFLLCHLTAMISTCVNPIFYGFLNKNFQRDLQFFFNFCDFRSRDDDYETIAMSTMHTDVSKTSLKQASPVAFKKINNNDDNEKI

[11] = target: T4, Neuropeptide Y receptor type 2 (Homo sapiens, UniProt P49146); format: functional, cell-based;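 note: HEK293 cells expressing the receptor and a CNG channel; stimulus was NPY near EC95 followed by isoproterenol to raise cAMP; antagonist potency measured as restoring cAMP signal that NPY suppresses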
T4 sequence (P49146 whole entry): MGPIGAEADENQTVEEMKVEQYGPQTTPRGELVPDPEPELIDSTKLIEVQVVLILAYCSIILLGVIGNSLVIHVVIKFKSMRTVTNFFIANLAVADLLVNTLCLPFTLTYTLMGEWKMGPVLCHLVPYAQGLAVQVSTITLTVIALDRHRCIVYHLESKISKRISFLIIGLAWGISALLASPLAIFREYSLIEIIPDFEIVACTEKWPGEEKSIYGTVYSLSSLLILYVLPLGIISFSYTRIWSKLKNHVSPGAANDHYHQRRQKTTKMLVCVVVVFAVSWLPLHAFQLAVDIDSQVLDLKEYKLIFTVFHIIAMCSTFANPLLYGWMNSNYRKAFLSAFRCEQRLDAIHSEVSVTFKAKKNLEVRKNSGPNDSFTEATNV

Large T antigen = Large T antigen (Simian virus 40, UniProt P03070); format: functional, Betapolyomavirus macacae;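 note: Confirmatory-stage PubChem screen for compounds that inhibit SV40 T antigen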
Sequence of Large T antigen (P03070 whole entry): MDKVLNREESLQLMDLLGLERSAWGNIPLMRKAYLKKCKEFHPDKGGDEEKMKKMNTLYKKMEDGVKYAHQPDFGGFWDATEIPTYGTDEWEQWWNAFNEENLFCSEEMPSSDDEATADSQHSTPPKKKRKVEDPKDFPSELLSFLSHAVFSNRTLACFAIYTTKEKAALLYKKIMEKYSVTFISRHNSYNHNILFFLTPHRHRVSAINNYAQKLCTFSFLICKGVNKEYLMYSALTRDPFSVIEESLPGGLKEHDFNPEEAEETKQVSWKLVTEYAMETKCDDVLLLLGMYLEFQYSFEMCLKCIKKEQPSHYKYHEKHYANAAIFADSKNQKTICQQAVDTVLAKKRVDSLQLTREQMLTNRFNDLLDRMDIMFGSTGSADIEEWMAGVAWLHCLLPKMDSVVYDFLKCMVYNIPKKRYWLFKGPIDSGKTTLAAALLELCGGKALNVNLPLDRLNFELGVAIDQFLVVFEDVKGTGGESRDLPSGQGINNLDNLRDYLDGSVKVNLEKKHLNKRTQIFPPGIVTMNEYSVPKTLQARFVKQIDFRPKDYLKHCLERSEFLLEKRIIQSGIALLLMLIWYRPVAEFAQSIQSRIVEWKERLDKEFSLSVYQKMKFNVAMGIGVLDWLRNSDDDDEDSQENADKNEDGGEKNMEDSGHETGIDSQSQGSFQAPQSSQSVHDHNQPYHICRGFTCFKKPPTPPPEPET

[12] = target: T5, Mannose-6-phosphate isomerase (Homo sapiens, UniProt P34949); experiment: inhibitors of human PMI, primary screen, biochemical, fluorescence intensity, coupled assay (AID 1209)
T5 sequence (P34949 whole entry): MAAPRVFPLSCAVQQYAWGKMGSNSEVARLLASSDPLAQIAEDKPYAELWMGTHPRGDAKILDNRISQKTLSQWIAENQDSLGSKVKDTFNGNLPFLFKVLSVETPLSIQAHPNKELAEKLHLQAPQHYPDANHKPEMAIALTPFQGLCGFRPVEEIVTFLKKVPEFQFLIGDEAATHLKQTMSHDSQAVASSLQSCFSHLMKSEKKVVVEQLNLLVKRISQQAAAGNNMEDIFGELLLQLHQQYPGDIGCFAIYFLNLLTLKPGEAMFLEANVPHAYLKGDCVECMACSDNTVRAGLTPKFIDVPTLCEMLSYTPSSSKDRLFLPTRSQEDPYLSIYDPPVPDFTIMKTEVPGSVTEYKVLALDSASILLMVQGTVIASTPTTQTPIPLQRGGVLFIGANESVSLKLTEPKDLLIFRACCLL

[13] = target: T5, Mannose-6-phosphate isomerase; experiment: human PMI inhibitors, high substrate, primary screen, biochemical, fluorescence intensity, high mannose 6-phosphate (AID 1220)
[14] = target: T6, Replicative DNA helicase DnaB (Mycobacterium tuberculosis, UniProt P9WMR3); experiment: DnaB intein splicing inhibitors, dose response, biochemical, cell-free fluorescence (AID 449749); format: functional
T6 sequence (P9WMR3 whole entry): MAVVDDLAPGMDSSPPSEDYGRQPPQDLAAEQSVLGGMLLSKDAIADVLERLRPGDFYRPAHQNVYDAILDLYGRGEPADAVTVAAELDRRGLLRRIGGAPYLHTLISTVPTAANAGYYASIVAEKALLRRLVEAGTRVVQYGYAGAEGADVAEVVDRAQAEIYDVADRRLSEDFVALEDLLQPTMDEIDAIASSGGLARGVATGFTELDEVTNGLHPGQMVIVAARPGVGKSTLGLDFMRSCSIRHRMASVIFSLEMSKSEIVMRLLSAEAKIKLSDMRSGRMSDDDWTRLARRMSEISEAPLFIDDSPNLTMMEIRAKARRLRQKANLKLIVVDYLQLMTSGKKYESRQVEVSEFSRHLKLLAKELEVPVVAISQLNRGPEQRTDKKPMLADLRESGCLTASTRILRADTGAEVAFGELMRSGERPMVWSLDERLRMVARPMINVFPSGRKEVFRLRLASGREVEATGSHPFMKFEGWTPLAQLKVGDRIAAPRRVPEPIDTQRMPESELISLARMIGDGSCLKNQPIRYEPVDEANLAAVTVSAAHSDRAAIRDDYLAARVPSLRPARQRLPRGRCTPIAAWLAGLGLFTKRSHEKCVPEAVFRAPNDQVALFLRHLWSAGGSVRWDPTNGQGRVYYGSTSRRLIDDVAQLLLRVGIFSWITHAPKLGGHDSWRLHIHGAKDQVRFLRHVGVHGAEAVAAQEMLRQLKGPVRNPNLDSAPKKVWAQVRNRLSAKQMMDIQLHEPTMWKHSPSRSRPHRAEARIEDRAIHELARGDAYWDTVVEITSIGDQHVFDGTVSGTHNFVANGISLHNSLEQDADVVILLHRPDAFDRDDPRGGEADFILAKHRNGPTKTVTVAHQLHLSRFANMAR

Vero = Vero cell cytotoxicity, cytotoxicity control for flavivirus capping enzyme inhibitors (AID 588742); format: functional; details: Chlorocebus sabaeus
Protein RecA = target: T7, Protein RecA (Mycobacterium tuberculosis, UniProt P9WHJ3); experiment: Fluorescence Cell-Free Homogeneous Dose Retest to Identify Inhibitors of RecA-Intein Splicing Activity. [Related pubchem assays (depositor defined):AID2097, AID2223, AID489010, AID492950]; format: functional
T7 sequence (P9WHJ3 whole entry): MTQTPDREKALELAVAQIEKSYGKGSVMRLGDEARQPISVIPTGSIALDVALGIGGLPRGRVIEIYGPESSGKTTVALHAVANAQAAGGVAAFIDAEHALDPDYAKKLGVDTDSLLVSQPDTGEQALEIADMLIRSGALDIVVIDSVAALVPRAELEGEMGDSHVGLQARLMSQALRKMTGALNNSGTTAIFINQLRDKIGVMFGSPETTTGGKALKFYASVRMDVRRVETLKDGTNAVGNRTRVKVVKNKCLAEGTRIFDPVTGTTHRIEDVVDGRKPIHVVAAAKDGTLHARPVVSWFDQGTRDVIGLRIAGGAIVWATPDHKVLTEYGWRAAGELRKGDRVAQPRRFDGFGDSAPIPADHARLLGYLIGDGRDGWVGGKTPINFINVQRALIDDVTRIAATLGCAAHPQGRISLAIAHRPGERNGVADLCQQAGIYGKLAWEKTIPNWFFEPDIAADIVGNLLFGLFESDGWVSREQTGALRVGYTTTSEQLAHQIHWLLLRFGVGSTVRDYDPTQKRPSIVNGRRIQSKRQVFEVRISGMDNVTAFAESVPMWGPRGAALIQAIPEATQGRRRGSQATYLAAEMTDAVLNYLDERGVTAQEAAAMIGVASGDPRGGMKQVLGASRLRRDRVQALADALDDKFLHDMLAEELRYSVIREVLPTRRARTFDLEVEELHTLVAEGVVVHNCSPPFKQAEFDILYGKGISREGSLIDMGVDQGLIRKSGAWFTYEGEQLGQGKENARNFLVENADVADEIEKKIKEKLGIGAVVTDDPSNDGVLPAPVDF

[15] = target: T8, Polyadenylate-binding protein 1 (Homo sapiens, UniProt P11940); experiment: PABP1 MLLE–PAM2 interaction inhibitors, dose response, miRNA deadenylation inhibitor project, biochemical, fluorescence polarization, Cy5-PAM2 peptide, secondary (AID 602260); format: functional; details: read-out: IC50_Mean
T8 sequence (P11940 whole entry): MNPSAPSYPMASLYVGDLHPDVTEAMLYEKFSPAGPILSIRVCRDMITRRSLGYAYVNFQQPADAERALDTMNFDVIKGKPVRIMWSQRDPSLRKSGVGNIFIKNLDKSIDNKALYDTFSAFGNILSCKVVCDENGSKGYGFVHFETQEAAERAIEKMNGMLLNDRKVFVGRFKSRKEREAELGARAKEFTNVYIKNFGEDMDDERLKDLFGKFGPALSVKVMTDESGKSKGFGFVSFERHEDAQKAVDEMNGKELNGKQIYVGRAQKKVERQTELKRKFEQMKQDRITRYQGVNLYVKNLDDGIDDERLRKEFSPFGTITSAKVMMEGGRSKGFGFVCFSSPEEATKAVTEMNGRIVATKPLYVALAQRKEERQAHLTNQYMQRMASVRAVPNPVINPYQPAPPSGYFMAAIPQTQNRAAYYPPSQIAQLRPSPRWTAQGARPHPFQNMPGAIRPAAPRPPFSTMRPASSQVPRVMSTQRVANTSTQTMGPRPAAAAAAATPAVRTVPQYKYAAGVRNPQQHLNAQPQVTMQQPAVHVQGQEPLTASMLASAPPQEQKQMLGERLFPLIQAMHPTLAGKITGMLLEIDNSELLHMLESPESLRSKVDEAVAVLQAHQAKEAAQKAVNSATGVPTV

[16] = target: T8, Polyadenylate-binding protein 1; experiment: PABP1 MLLE–PAM2 binding inhibitor potency, dose response, biochemical, fluorescence polarization, FITC-PAM2 peptide (AID 602259); format: functional; details: read-out: IC50_Mean

COc1ccccc1C1CN=NC12CCCc1ccccc1C2=O (configuration not stated)
EC50 (Mucolipin-3): 1.83 µM (active) | EC50 (Ion channel NompC): > 29.9 µM (not active)

CC1NC(C)C(C)N(C2=C(Cl)C(=O)N(c3ccc(Cl)c(Cl)c3)C2=O)C1C (configuration not stated)
IC50 [1]: > 100 µM (not active) | IC50 (Bcl-2-related protein A1 [2]): 47 µM (active) | IC50 (Bcl-2-related protein A1 [3]): > 100 µM (not active)

Clc1nc2ccccc2cc1-c1nnn(-c2ccccc2)n1
IC50 (Bcl-2-related protein A1 [2]): > 100 µM (not active) | IC50 (Bcl-2-related protein A1 [3]): > 100 µM (not active)

O=C1N=C(N2CCOCC2)S/C1=C/c1ccc(-c2ccc(F)cc2)o1
IC50 [4]: 2.93 µM (active) | IC50 [5]: > 100 µM (active)

Cc1nc2c3cnn(-c4ccc(C)c(C)c4)c3ncn2n1
EC50 [6]: 0.298 µM (active) | EC50 [7]: < 0.1 µM (active) | EC50 [8]: 0.341 µM (active) | EC50 [9]: 0.424 µM (active) | AC50 (Cytochrome P450 2C9): 20 µM (inconclusive)

c1ccc(COc2ccc(OCCCCN3CCCCC3)cc2)cc1
IC50 [10]: 9.46 µM (active) | IC50 [11]: > 35 µM (not active)

Cc1nc2ccc(F)cc2cc1C(=O)Nc1ccc(Cl)c(Cl)c1
IC50 [10]: 8.84 µM (active) | IC50 [11]: 8.88 µM (active)

Cc1nnc2n(c1=O)N=C(c1ccc(Cl)cc1)CS2
EC50 [6]: 0.355 µM (active) | EC50 [7]: < 0.1 µM (inconclusive) | EC50 [8]: 0.249 µM (active) | EC50 [9]: 0.244 µM (active)

COc1ccc2c(c1)-c1nc(/N=C/c3ccc(O)c(OC)c3)sc1CC2
IC50 (Large T antigen): 15.5 µM (active) | IC50 [12]: > 50 µM (not active) | IC50 [13]: > 50 µM (not active)

CCOC(=O)c1c(C)oc2c1c(/C=N/CCO)c(O)c1ccccc12
IC50 [12]: 5.36 µM (active) | IC50 [13]: 4.48 µM (active) | AC50 [14]: > 380 µM (inactive) | CC50 (Vero): 32.9 µM (active) | EC50 (Protein RecA): 0.618 µM (active) | IC50 [15]: > 66 µM (inactive) | IC50 [16]: > 66 µM (inactive)
